Assay results: patent US5110976A, “Insecticidal composition comprising more than one active ingredient” (priority 1985, dated 1992)
In brackets after ≈: the same amount, converted by molar mass.

Tests used:
Tetranychus urticae = test: Potter Tower spray on mite-infested leaves (Table 19); assay type: in vivo, mites (Tetranychus urticae); details: Tetranychus urticae, 24 h, mortality after 24 hours; read-out: approx. LD50
Protocol: Leaves already infested with mites (Tetranychus urticae) were sprayed under Potter Tower. Mortality after 24 hours on the treated leaves was compared with the control.

Lucillia sericata = test: Comparative contact test (Table 15); assay type: in vivo, sheep maggot fly (Lucillia sericata), imago; design: key: % mortality after 24 h, Abbott-corrected; details: 1440 min
Protocol: (§1) The active ingredient is dissolved in a 1:2 mixture of oil and acetone; filter paper discs (Whatman No. 1, diameter 9 cm) are impregnated with the solutions of the corresponding stereoisomers and enantiomer-pairs, respectively. The acetone is allowed to evaporate, whereupon the insects are exposed to filter papers discs placed in Petri-dishes. Three parallels are used on each dose and 15 insects are placed into each Petri-dish. The percental mortality is determined after 24 hours. The corrected percent mortality is calculated by means of the Abbot Formula.
(§2) The comparative test of Ia, Ib and a 40:60 mixture of Ia:Ib is carried out on bean weevil (Acanthoscelides obtectus), flour-beetle, (Tribolium confusum), house fly (Musca domestica) and sheep maggot fly (Lucillia sericata). The test method described is Example 41.

Acanthoscelides obtectus = test: Comparative contact test (Table 15); assay type: in vivo, bean weevil (Acanthoscelides obtectus), imago; details: Acanthoscelides obtectus, 24 h
Protocol: as §1, §2

Hyphantria cunea = test: Topical test on fall webworm (Table 18); assay type: in vivo, fall wetworm (Hyphantria cunea), L7-L8 larvae; details: for 24 hours' mortality: 1440 min
Protocol: The active ingredients are dissolved in 2-ethoxy-ethanol and the solutions are applied in the form of 0.2 μl droplets onto the back of fall wetworm (Hyphantria cunea) of L7 -L8 larvae stage. The treated worms are placed on strawberry leaves in Petri-dishes. The test is carried out by using […], 2 parallels and 10 insects for each dose. The killed worms are counted after 24 hours and the percental mortality rate is calculated.

[1] = tested on: Leptinotarsa decemlineara larvae; test: Paralysis of larvae on sprayed tomato plants (Table 23); assay type: in vivo, L3 stage larvae; details: 6 hours
Protocol: Tomato plants pre-cultivated in pots are sprayed with a suspension of the active ingredient formed with a mixture of acetone and water. The treated plants are placed into isolators and infected with L3 stage Leptinotarsa decemlineara larvae. The percental ratio of paralyzed larvae which fall down from the plants is determined after 6 hours.

Musca domestica [2] = test: Filter paper disc contact test (Table 11); assay type: in vivo, house fly (Musca domestica)
How it was run: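 Stereoisomers in 1:2 oil/acetone were applied to 9 cm filter paper discs, the acetone evaporated, and discs placed in Petri dishes with 15 flies each, three replicates per dose. Mortality was scored at 24 h and corrected by Abbott's formula.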

Musca domestica [3] = test: Comparative contact test (Table 15); assay type: in vivo, house fly (Musca domestica), imago; details: 24 h
Protocol: as §1, §2

tribolium confusum [4] = test: Comparative contact test (Table 15); assay type: in vivo, flour-beetle (Tribolium confusum), imago; details: 24 h
Protocol: as §1, §2

Colorado potato beetle = test: Topical test on Colorado potato beetle (Table 14); assay type: in vivo, Colorado potato beetle (Leptinotersa decemlineata), imago
Protocol: In Table 14 the activity on Colorado potato beetle is shown.
The test materials are dissolved in 2-ethoxyethanol (Cellosolve). One 0.3 μl drop of the solution is applied to the abdominal sterna of the imago. The treatment is carried out by using 2 parallels and 10 insects for each dose. […]

T. confusum = test: Activity as function of time, toxic symptoms (Table 16); assay type: in vivo, flour beetle (T. confusum), imagos
How it was run: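 T. confusum imagos exposed in Petri dishes to filter-paper discs impregnated with isomer solutions in 1:2 oil/acetone, acetone evaporated; 3 replicates of 15 insects per dose. Insects lying on their backs counted at successive time points, expressed as percent.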

Tribolium confusum [5] = test: Contact test, mixtures of Ia and Ib of various ratio (Table 13); assay type: in vivo, flour beetle (Tribolium confusum)
Protocol: as §1
In Table 13 the insecticidal effect of mixtures of enantiomer-pairs Ia and Ib of various ratio is shown on flour beetle (Tribolium confusum). The test method is that disclosed in Example 43.

Tribolium confusum [6] = test: Contact test on Tribolium confusum (Table 12); assay type: in vivo; details: Tribolium confusum, 24 h
How it was run: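 Compound in 1:2 oil/acetone impregnated onto 9 cm filter paper discs; after acetone evaporation, 15 insects per Petri dish exposed by contact, three replicates per dose. Mortality read at 24 hours and corrected by Abbott's formula.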

Compound: CC1(C)C(C=C(Cl)Cl)C1C(=O)OC(C#N)c1cccc(Oc2ccccc2)c1 (centres unmarked) [Ia:Ib = 4:6]
- LC50 (Tetranychus urticae): ~0.06 µg/mL (≈ 0.144 µM)
- mortality (Lucillia sericata; 0.02 mg/disc): 18
- mortality (Lucillia sericata; 0.07 mg/disc): 50
- mortality (Lucillia sericata; 0.22 mg/disc): 60
- mortality (Lucillia sericata; 0.67 mg/disc): 75
- mortality (Lucillia sericata; 2.0 mg/disc): 100
- mortality (Lucillia sericata; 6.0 mg/disc): 100
- mortality at 20 µg/disc (Acanthoscelides obtectus; 0.02 mg/disc): 30%
- mortality at 70 µg/disc (Acanthoscelides obtectus; 0.07 mg/disc): 55%
- mortality at 220 µg/disc (Acanthoscelides obtectus; 0.22 mg/disc): 90%
- mortality at 670 µg/disc (Acanthoscelides obtectus; 0.67 mg/disc): 100%
- mortality at 2000 µg/disc (Acanthoscelides obtectus; 2.0 mg/disc): 100%
- mortality at 6000 µg/disc (Acanthoscelides obtectus; 6.0 mg/disc): 100%
- 24 hours' mortality (Hyphantria cunea; 0.023 (μg/disc)): 40%
- 24 hours' mortality (Hyphantria cunea; 0.047 (μg/disc)): 50%
- 24 hours' mortality (Hyphantria cunea; 0.094 (μg/disc)): 55%
- mortality at 0.188 µg/disc (Hyphantria cunea; Hyphantria cunea, topical, 24 h, 0.188 (μg/disc)): 65%
- mortality at 0.375 µg/disc (Hyphantria cunea; Hyphantria cunea, topical, 24 h, 0.375 (μg/disc)): 75%
- % ratio of paralyzed larvae ([1]; 8 ppm): 60%
- % ratio of paralyzed larvae ([1]; 40 ppm): 75%
- % ratio of paralyzed larvae ([1]; 200 ppm): 100%
- % ratio of paralyzed larvae ([1]; 1000 ppm): 100%
- mortality at 40 µg/disc (Musca domestica [2]; Musca domestica, 24 h, 0.04 mg/disc): 41%
- mortality at 110 µg/disc (Musca domestica [2]; Musca domestica, 24 h, 0.11 mg/disc): 81%
- mortality at 330 µg/disc (Musca domestica [2]; Musca domestica, 24 h, 0.33 mg/disc): 100%
- mortality at 1000 µg/disc (Musca domestica [2]; Musca domestica, 24 h, 1.00 mg/disc): 100%
- mortality at 3000 µg/disc (Musca domestica [2]; Musca domestica, 24 h, 3.00 mg/disc): 100%
- comparative activity (Musca domestica [2]; mixture versus Ia): corresponds to that of the pure isomer Ia
- mortality at 20 µg/disc (Musca domestica [3]; 0.02 mg/disc): 25%
- mortality at 70 µg/disc (Musca domestica [3]; 0.07 mg/disc): 45%
- mortality at 220 µg/disc (Musca domestica [3]; 0.22 mg/disc): 85%
- mortality at 670 µg/disc (Musca domestica [3]; 0.67 mg/disc): 100%
- mortality at 2000 µg/disc (Musca domestica [3]; 2.0 mg/disc): 100%
- mortality at 6000 µg/disc (Musca domestica [3]; 6.0 mg/disc): 100%
- mortality at 20 µg/disc (tribolium confusum [4]; 0.02 mg/disc): 16%
- mortality at 70 µg/disc (tribolium confusum [4]; 0.07 mg/disc): 80%
- mortality at 220 µg/disc (tribolium confusum [4]; 0.22 mg/disc): 100%
- mortality at 670 µg/disc (tribolium confusum [4]; 0.67 mg/disc): 100%
- mortality at 2000 µg/disc (tribolium confusum [4]; 2.0 mg/disc): 100%
- mortality at 6000 µg/disc (tribolium confusum [4]; 6.0 mg/disc): 100%
- 24 hours' mortality % (Colorado potato beetle; 0.05 μg/beetle): 45%
- 24 hours' mortality % (Colorado potato beetle; 0.10 μg/beetle): 60%
- 24 hours' mortality % (Colorado potato beetle; 0.20 μg/beetle): 70%
- mortality at 0.4 µg/beetle (Colorado potato beetle; Leptinotarsa decemlineata, topical, read-out: 24 hours' mortality %, 0.40 μg/beetle): 80%
- % of insects showing toxic symptoms (T. confusum; 30 minutes): 0%
- % of insects showing toxic symptoms (T. confusum; 30 minutes, 0.33 mg/disc): 0%
- % of insects showing toxic symptoms (T. confusum; 30 minutes, 1.00 mg/disc): 50%
- % of insects showing toxic symptoms (T. confusum; 30 minutes, 3.00 mg/disc): 55%
- % of insects showing toxic symptoms (T. confusum; 60 minutes): 15%
- % of insects showing toxic symptoms (T. confusum; 60 minutes, 0.33 mg/disc): 85%
- % of insects showing toxic symptoms (T. confusum; 60 minutes, 1.00 mg/disc): 85%
- % of insects showing toxic symptoms (T. confusum; 60 minutes, 3.00 mg/disc): 100%
- % of insects showing toxic symptoms (T. confusum; 120 minutes): 30%
- % of insects showing toxic symptoms (T. confusum; 120 minutes, 0.33 mg/disc): 100%
- % of insects showing toxic symptoms (T. confusum; 120 minutes, 1.00 mg/disc): 100%
- % of insects showing toxic symptoms (T. confusum; 120 minutes, 3.00 mg/disc): 100%
- % of insects showing toxic symptoms (T. confusum; 180 minutes): 55%
- % of insects showing toxic symptoms (T. confusum; 180 minutes, 0.33 mg/disc): 100%
- % of insects showing toxic symptoms (T. confusum; 180 minutes, 1.00 mg/disc): 100%
- % of insects showing toxic symptoms (T. confusum; 180 minutes, 3.00 mg/disc): 100%
- 24 hours' mortality % (Tribolium confusum [5]; 0.02 mg/disc, 1440 min): 14%
- 24 hours' mortality % (Tribolium confusum [5]; 0.06 mg/disc, 1440 min): 53%
- 24 hours' mortality % (Tribolium confusum [5]; 0.25 mg/disc): 100%
- 24 hours' mortality % (Tribolium confusum [5]; 1.00 mg/disc): 100%
- mortality at 110 µg/disc (Tribolium confusum [6]; 0.11 mg/disc): 61%
- mortality at 330 µg/disc (Tribolium confusum [6]; 0.33 mg/disc): 89%
- mortality at 1000 µg/disc (Tribolium confusum [6]; 1.00 mg/disc): 100%
- mortality at 3000 µg/disc (Tribolium confusum [6]; 3.00 mg/disc): 100%
